According to US20240032530A1, “BLOOD SAMPLER CONTAINING ANTI-PLATELET AGENT AND WATER-SOLUBLE MATRIX MATERIAL” (Radiometer Medical ApS, priority 2020, published 2024):

Test system: platelets (PLT) in whole blood
Assay: Whole blood stability: PLT concentration on Sysmex XN-9000 hematology analyzer
Format: cell-based, healthy volunteers
Conditions: FIG. 8; formulated with PVP (Mw 10′000)/Tris matrix, 1 μM in whole blood, with Hep brick or LiHep tube, analyzed within 6 hours, three donors
Procedure: For storage stability and whole blood stabilization testing, the tubes were sprayed with 10 μL each of the mixture (D) using an ExactaCoat from Sono-Tek for ultrasonic spraying. And tubes were evacuated after spraying in order to allow filling of 3 mL whole blood during blood drawing via venipuncture.
Tubes with sprayed anti-platelet agents Iloprost, Beraprost sodium and Treprostinil each formulated with a PVP (Mw 10′000)/Tris matrix were prepared by ultrasonic spraying as described above. Spraying was done into either 1) tubes with no additive and after spraying, a heparinized filter paper brick (Hep brick) was added to the tube; or 2) spraying was conducted into commercial Lithium Heparin tubes (LiHep). The formulations were prepared to achieve a final anti-platelet agent concentration of 1 μM in whole blood. After preparation, tubes were evacuated and lids closed in order to allow drawing of correct whole blood volume during venipuncture. Blood from three different healthy volunteers were drawn into prepared blood collection tubes and reference standard EDTA and Lithium Heparin (LiHep) tubes. Whole blood samples were analyzed with a Sysmex XN-9000 hematology analyzer within 6 hours after blood sample drawing.
The Y-axis is the normalized PLT concentration relative to the EDTA sample.

Structure (SMILES) | anti-platelet activity (normalized PLT concentration relative to the EDTA sample)
CC#CCC(C)[C@H](O)/C=C/[C@@H]1[C@H]2c3cccc(CCCC(=O)O)c3O[C@H]2C[C@H]1O (mixture of isomers) [Beraprost, Beraprost sodium] | as high as that of EDTA
CC#CCC(C)[C@H](O)/C=C/[C@@H]1[C@H]2C/C(=C/CCCC(=O)O)C[C@H]2C[C@H]1O (stereo partly drawn) [Iloprost, iloprost] | as high as that of EDTA
CCCCC[C@H](O)CC[C@@H]1[C@H]2Cc3cccc(OCC(=O)O)c3C[C@H]2C[C@H]1O [Treprostinil] | as high as that of EDTA
